Molecules are shown by their SMILES. Values after ≈ are worked out from the molar mass of the structure shown.

Conditions in one series: not given
Molecule `O=C(Nc1ccccc1)Nc1ccccc1` showed a solubility of 0.707 mM (≈ 150 µg/mL).
Regarding `Cc1cc(OC(=O)N(C)C)n(-c2ccccc2)n1`, the solubility stood at 8.15 mM (≈ 2000 µg/mL).
Still for that read-out and setting: next, `CCC[C@H]1CCCCN1`: 141 mM (≈ 18000 µg/mL); `O=C(O)c1c(Cl)cccc1Cl`: 74 mM (≈ 14100 µg/mL).
`O=C(O)c1c(O)cccc1O` registered a solubility of 62 mM (≈ 9560 µg/mL).
`O=C(O)c1ccc(Cl)c(Cl)c1` yielded a solubility of 0.32 mM (≈ 61.1 µg/mL).
In the case of `Nc1nc(=O)c2[nH]c(=O)c(=O)[nH]c2[nH]1`, the solubility stood at 0.00683 mM (≈ 1.33 µg/mL). Compared with the last molecule, the solubility is about 47-fold lower.
In turn, `CC(=O)Oc1c(C(C)(C)C)cc([N+](=O)[O-])c(C)c1[N+](=O)[O-]` registered a solubility of 0.0338 mM (≈ 10 µg/mL).
Molecule `Cc1cc(C)c(N)cc1C` displayed a solubility of 11.1 mM (≈ 1500 µg/mL).

Still in this series, the particulars now being: 20 °C.
As to `COP(=S)(OC)SCc1nc(N)nc(N)n1`, the solubility worked out at 0.853 mM (≈ 240 µg/mL).
The molecule `O=c1c(O)c(-c2ccc(O)cc2O)oc2cc(O)cc(O)c12` showed a solubility of 0.827 mM (≈ 250 µg/mL). This solubility and that of the molecule before are within 1.5-fold of each other.
For the molecule `COP(=S)(OC)Oc1ccc([N+](=O)[O-])c(Cl)c1`, the solubility came to 0.134 mM (≈ 40 µg/mL).
`CCCCCCCCCCCCC(=O)O` yielded a solubility of 0.154 mM (≈ 33 µg/mL).
`Cc1ccc(Cl)cc1` came in with a solubility of 0.837 mM (≈ 106 µg/mL).
In the case of `CCC(C)N` (stereo not drawn), the solubility came out at 1530 mM (≈ 112000 µg/mL). Compared with the last molecule, the solubility is about 1800-fold higher.
Same read-out and setting: next, `O=C(O)CCCCCCCCCCC(=O)O`: 0.174 mM (≈ 40 µg/mL).
As to `O=C(O)CCc1ccccc1`, the solubility was found to be 39.3 mM (≈ 5900 µg/mL).
As for `COc1ccc2c(c1O)[C@]13CCN(C)[C@H](C2)[C@@H]1C=CC(=O)C3`, the solubility turned out to be 13.4 mM (≈ 4000 µg/mL).
The same measure, in the same setting: next, `N[C@H](CCCC(=O)O)C(=O)O`: 13.7 mM (≈ 2200 µg/mL); `COC(=O)c1ccc(OC)cc1`: 3.87 mM (≈ 643 µg/mL).
Regarding `O=c1cc(O)cc[nH]1`, the solubility amounted to 56.3 mM (≈ 6250 µg/mL). This solubility is about 15-fold higher than that of the molecule before.
Take `Oc1ccc2c(c1)CCCC2`: the solubility was 10.1 mM (≈ 1500 µg/mL).
In the case of `COc1ccc(Oc2ccc(NC(=O)N(C)C)cc2)cc1`, the solubility was determined as 0.0699 mM (≈ 20 µg/mL).
As for `c1ccc2c(c1)cnc1ccccc12`, the solubility came out at 1.67 mM (≈ 300 µg/mL). Compared with the last molecule, the solubility is about 24-fold higher.
For the molecule `CCCCCC(=O)OC`, the solubility was 10.2 mM (≈ 1330 µg/mL).
Molecule `Nc1cnn(-c2ccccc2)c(=O)c1Br` gave a solubility of 0.752 mM (≈ 200 µg/mL).
Regarding `CC(C)CNC(=O)N1CCNC1=O`, the solubility was found to be 7.02 mM (≈ 1300 µg/mL).
As to `COc1ccc(C(=O)c2cccc(C)c2)cc1C`, the solubility stood at 0.00832 mM (≈ 2 µg/mL). This solubility lies about 840-fold lower than the previous one.
On the same count and under the same terms, the figure for `Clc1ccc(Cl)c(-c2cccc(Cl)c2Cl)c1` is 0.000342 mM (≈ 0.1 µg/mL); for `Clc1ccc(-c2ccc(Cl)c(Cl)c2)c(Cl)c1` it is 0.000126 mM (≈ 0.0368 µg/mL).
`CCOP(=S)(OCC)OP(=S)(OCC)OCC` returned a solubility of 0.0931 mM (≈ 30 µg/mL).
`Clc1cc(Cl)c(-c2c(Cl)cc(Cl)c(Cl)c2Cl)cc1Cl`: the solubility turned out to be 1.24e-05 mM (≈ 0.0049 µg/mL).
In turn, `CC(C)(O)C(Cl)(Cl)Cl` came in with a solubility of 45.1 mM (≈ 8000 µg/mL).
The same measure, in the same setting: the figure for `CC1CCCC(=O)C1` (stereo not drawn) is 13.4 mM (≈ 1500 µg/mL).
For the molecule `C[C@H](O)C(=O)Nc1c(I)c(C(=O)NC(CO)CO)c(I)c(C(=O)NC(CO)CO)c1I`, the solubility turned out to be 180 mM (≈ 140000 µg/mL).
In the case of `C=CCOC(=O)c1ccccc1C(=O)OCC=C`, the solubility was determined as 0.739 mM (≈ 182 µg/mL). Against the preceding molecule, the solubility is about 240-fold lower.
In the case of `OCCN(CCO)c1ccccc1`, the solubility amounted to 184 mM (≈ 33400 µg/mL).
Turning to `COc1ccc2c3c1O[C@H]1[C@@H](O)C=C[C@H]4[C@@H](C2)N(C)CC[C@@]341`, the solubility was 30.1 mM (≈ 9000 µg/mL). Compared with the last molecule, the solubility is about 6.1-fold lower.
`COC(=O)C(Cl)Cc1ccc(Cl)cc1` (stereo not drawn) yielded a solubility of 0.172 mM (≈ 40 µg/mL).

The series is the same for the next values; noted with them: 21 °C.
`CN(C)[C@@H]1C(O)=C(C(N)=O)C(=O)[C@@]2(O)C(O)=C3C(=O)c4c(O)ccc(Cl)c4[C@@H](O)[C@H]3C[C@@H]12` registered a solubility of 3.26 mM (≈ 1520 µg/mL).

Staying with this series, now noted: 22 °C.
Regarding `O=[N+]([O-])c1ccc(Oc2ccc(Cl)cc2Cl)cc1`, the solubility worked out at 0.00352 mM (≈ 1 µg/mL). In other words, the single-digit micromolar range.
The molecule `CCCOC=O` registered a solubility of 250 mM (≈ 22000 µg/mL). This solubility is about 71000-fold higher than that of the molecule before.
`CNC(=O)ON=C(CSC)C(C)(C)C` yielded a solubility of 23.8 mM (≈ 5200 µg/mL).

The series is the same for the next values; noted with them: 23 °C.
As for `Nc1nc(N)[nH]c(=O)n1`, the solubility worked out at 0.59 mM (≈ 75 µg/mL).
On the same count and under the same terms, next, `COP(=O)(OC)OC1=C(Cl)C2C=CCC12` (stereo not drawn): 9.97 mM (≈ 2500 µg/mL); `C[C@]12CC[C@@H](O)C[C@@H]1CC[C@@H]1[C@@H]2[C@H](O)C[C@]2(C)C(=O)CC[C@@H]12`: 0.255 mM (≈ 78.2 µg/mL).

The same series, now with this note: 24 °C.
In the case of `CC(CN1c2ccccc2Sc2ccccc21)N(C)C` (stereo not drawn), the solubility amounted to 0.055 mM (≈ 15.6 µg/mL).
As to `CC=CCCCC`, the solubility was determined as 0.153 mM (≈ 15 µg/mL).
In turn, `CCNP(=S)(OC)O/C(C)=C/C(=O)OC(C)C` (stereo not drawn) returned a solubility of 0.391 mM (≈ 110 µg/mL).

The same series, now with this note: 25 °C.
`COc1ccc2c(c1OC)C(=O)O[C@@H]2[C@H]1c2c(cc3c(c2OC)OCO3)CCN1C` gave a solubility of 0.449 mM (≈ 186 µg/mL).
`Clc1ccc(Cl)c(-c2c(Cl)ccc(Cl)c2Cl)c1Cl` had a solubility of 1.25e-05 mM (≈ 0.00451 µg/mL).
Take `C[C@]12CCC(=O)C=C1CC[C@@H]1[C@@H]2CC[C@]2(C)C(=O)CC[C@@H]12`: the solubility stood at 0.202 mM (≈ 57.8 µg/mL). This solubility is about 16000-fold higher than that of the molecule before.
`Clc1c(Cl)c(Cl)c(-c2ccccc2)c(Cl)c1Cl` came in with a solubility of 1.23e-05 mM (≈ 0.00401 µg/mL).
The same measure, in the same setting: the figure for `C=CCC(C)C` is 0.57 mM (≈ 48 µg/mL).
In turn, `CC1CCC(C)CC1` (stereo not drawn) had a solubility of 0.0342 mM (≈ 3.84 µg/mL).
As for `CC(C)C(=O)C(C)C`, the solubility was determined as 49.9 mM (≈ 5700 µg/mL).
On to `Cc1cccc2c1ccc1ccccc12`, for which the solubility is 0.0014 mM (≈ 0.269 µg/mL).
Still for that read-out and setting: next, `C1CCCCCC1`: 0.306 mM (≈ 30 µg/mL).
`Cc1cccc2ccccc12` displayed a solubility of 0.181 mM (≈ 25.8 µg/mL).
Regarding `CC(C)CCBr`, the solubility was 1.3 mM (≈ 196 µg/mL).
As for `C=C(Cl)CSC(=S)N(CC)CC`, the solubility was found to be 0.447 mM (≈ 100 µg/mL).
`CC(=O)Nc1ccc(OC(C)=O)cc1`: the solubility came out at 12.4 mM (≈ 2390 µg/mL).
With `CCC(O)C(C)(C)C` (stereo not drawn), the solubility stood at 70.6 mM (≈ 8200 µg/mL).

(Values after the OPERA property sets (Mansouri et al. 2018).)
